Measurements as given in the supplement of paper PMC11451515.

System: NOMO1
Test: cell viability relative to DMSO control; higher = less cytotoxic
Conditions: 48 h
Method in brief: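 Viability, reported as a per-plate percentage of DMSO wells with cell-free wells as background, came from CellTiter-Glo One luminescence. Reading took place after 48 h at 37°C. Before that, NOMO1 or SEM (500 cells/well) or P12-Ichikawa (1000 cells/well) leukemia cells, adapted for at least four passages in each medium, were seeded in 1536-well plates (5 μl) and pin-dosed with library compounds in DMSO, 47 μM to 0.79 nM over 11 threefold points.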

[1] = HPLM + 10% dialyzed FBS, 0.000781 µM
[2] = HPLM + 10% dialyzed FBS, 0.00234 µM
[3] = HPLM + 10% dialyzed FBS, 0.00702 µM
[4] = HPLM + 10% dialyzed FBS, 0.0211 µM
[5] = HPLM + 10% dialyzed FBS, 0.0632 µM
[6] = HPLM + 10% dialyzed FBS, 0.19 µM
[7] = HPLM + 10% dialyzed FBS, 0.569 µM
[8] = HPLM + 10% dialyzed FBS, 1.71 µM
[9] = HPLM + 10% dialyzed FBS, 5.12 µM
[10] = HPLM + 10% dialyzed FBS, 15.4 µM
[11] = HPLM + 10% dialyzed FBS, 46.1 µM
[12] = RPMI 5 mM glucose + 10% FBS, 0.000781 µM
[13] = RPMI 5 mM glucose + 10% FBS, 0.00234 µM
[14] = RPMI 5 mM glucose + 10% FBS, 0.00702 µM
[15] = RPMI 5 mM glucose + 10% FBS, 0.0211 µM
[16] = RPMI 5 mM glucose + 10% FBS, 0.0632 µM
[17] = RPMI 5 mM glucose + 10% FBS, 0.19 µM
[18] = RPMI 5 mM glucose + 10% FBS, 0.569 µM
[19] = RPMI 5 mM glucose + 10% FBS, 1.71 µM
[20] = RPMI 5 mM glucose + 10% FBS, 5.12 µM
[21] = RPMI 5 mM glucose + 10% FBS, 15.4 µM
[22] = RPMI 5 mM glucose + 10% FBS, 46.1 µM
[23] = RPMI 5 mM glucose + 10% dialyzed FBS, 0.000781 µM
[24] = RPMI 5 mM glucose + 10% dialyzed FBS, 0.00234 µM
[25] = RPMI 5 mM glucose + 10% dialyzed FBS, 0.00702 µM
[26] = RPMI 5 mM glucose + 10% dialyzed FBS, 0.0211 µM
[27] = RPMI 5 mM glucose + 10% dialyzed FBS, 0.0632 µM
[28] = RPMI 5 mM glucose + 10% dialyzed FBS, 0.19 µM
[29] = RPMI 5 mM glucose + 10% dialyzed FBS, 0.569 µM
[30] = RPMI 5 mM glucose + 10% dialyzed FBS, 1.71 µM
[31] = RPMI 5 mM glucose + 10% dialyzed FBS, 5.12 µM
[32] = RPMI 5 mM glucose + 10% dialyzed FBS, 15.4 µM
[33] = RPMI 5 mM glucose + 10% dialyzed FBS, 46.1 µM

| SMILES | cell viability [1] [%] | cell viability [2] [%] | cell viability [3] [%] | cell viability [4] [%] | cell viability [5] [%] | cell viability [6] [%] | cell viability [7] [%] | cell viability [8] [%] | cell viability [9] [%] | cell viability [10] [%] | cell viability [11] [%] | cell viability [12] [%] | cell viability [13] [%] | cell viability [14] [%] | cell viability [15] [%] | cell viability [16] [%] | cell viability [17] [%] | cell viability [18] [%] | cell viability [19] [%] | cell viability [20] [%] | cell viability [21] [%] | cell viability [22] [%] | cell viability [23] [%] | cell viability [24] [%] | cell viability [25] [%] | cell viability [26] [%] | cell viability [27] [%] | cell viability [28] [%] | cell viability [29] [%] | cell viability [30] [%] | cell viability [31] [%] | cell viability [32] [%] | cell viability [33] [%] |
| --- | --- | --- | --- | --- | --- | --- | --- | --- | --- | --- | --- | --- | --- | --- | --- | --- | --- | --- | --- | --- | --- | --- | --- | --- | --- | --- | --- | --- | --- | --- | --- | --- | --- |
| CN(C)c1ccc(C(=O)NCCCCCCC(=O)NO)cc1 | 106 | 103 | 104 | 94.9 | 106 | 83.5 | 112 | 89 | 7.42 | 3.13 | 3.88 | 91.1 | 90.6 | 103 | 92.3 | 95.8 | 99.8 | 91.4 | 92 | 6.22 | 2.81 | 2.37 | 102 | 103 | 124 | 106 | 112 | 105 | 106 | 89 | 7.05 | 3.1 | 3.05 |
| Cc1ccccc1C(C(=O)NC1CCCCC1)N(C(=O)CNc1ccc(C#N)cc1)c1cccc(F)c1 (stereo unspecified) | 103 | 111 | 115 | 106 | 98.3 | 111 | 112 | 99.4 | 114 | 84.2 | 82.8 | 77.2 | 88.5 | 94.5 | 87.7 | 103 | 94 | 93.7 | 100 | 89.6 | 90.1 | 87.3 | 71.9 | 110 | 140 | 142 | 98.5 | 84.7 | 88.2 | 70.1 | 80.3 | 97 | 76.9 |
